Measurements: PubChem BioAssay (NCI)
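Compound exposure: 48 hours, 5 concentrations, 96-well plates. Here, GI50 denotes the concentration required for 50% inhibition of growth. At the TGI there is no net growth.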

How the values were obtained:
Assay in all cases: growth of human tumour cells (NCI), 48 h
NCI-H460 lung = test system: NCI-H460 lung
U251 CNS = test system: U251 CNS
K-562 leukemia = test system: K-562 leukemia
ACHN renal = test system: ACHN renal
CCRF-CEM leukemia = test system: CCRF-CEM leukemia
SK-MEL-5 melanoma = test system: SK-MEL-5 melanoma
SR leukemia = test system: SR leukemia
MALME-3M melanoma = test system: MALME-3M melanoma
NCI/ADR-RES ovarian = test system: NCI/ADR-RES ovarian
SF-539 CNS = test system: SF-539 CNS
MDA-MB-231 breast = test system: MDA-MB-231 breast
HS 578T breast = test system: HS 578T breast
NCI-H522 lung = test system: NCI-H522 lung
HCT-15 colon = test system: HCT-15 colon
HT29 colon = test system: HT29 colon
UACC-62 melanoma = test system: UACC-62 melanoma
COLO 205 colon = test system: COLO 205 colon
BT-549 breast = test system: BT-549 breast
SK-MEL-2 melanoma = test system: SK-MEL-2 melanoma
HOP-92 NSCLC = test system: HOP-92 NSCLC
OVCAR-3 ovarian = test system: OVCAR-3 ovarian
EKVX NSCLC = test system: EKVX NSCLC
RXF 393 renal = test system: RXF 393 renal
PC-3 prostate = test system: PC-3 prostate
786-0 renal = test system: 786-0 renal
SW-620 colon = test system: SW-620 colon
HL-60(TB) leukemia = test system: HL-60(TB) leukemia
SNB-75 CNS = test system: SNB-75 CNS
MOLT-4 leukemia = test system: MOLT-4 leukemia

Compound CC(=O)OCCC/C(=C/c1cc2ccccc2c2ccccc12)[N+](=O)[O-] has a GI50 (NCI-H460 lung) of 1.71 µM, a TGI (NCI-H460 lung) of 3.14 µM and a GI50 (U251 CNS) of 1.43 µM. For the same compound, the TGI (U251 CNS) was 2.74 µM, the GI50 (K-562 leukemia) was 1.7 µM and the TGI (K-562 leukemia) was 6.87 µM. It also gave a GI50 (ACHN renal) of 1.64 µM, a TGI (ACHN renal) of 3 µM and a GI50 (CCRF-CEM leukemia) of 2.52 µM. The TGI (CCRF-CEM leukemia) was over 25.3 µM, the GI50 (SK-MEL-5 melanoma) was 1.61 µM and the TGI (SK-MEL-5 melanoma) was 2.96 µM. For the same compound, the GI50 (SR leukemia) was 0.495 µM, the TGI (SR leukemia) was 4.58 µM and the GI50 (MALME-3M melanoma) was 1.55 µM. For the same compound, the TGI (MALME-3M melanoma) was 3.38 µM, the GI50 (NCI/ADR-RES ovarian) was 1.99 µM and the TGI (NCI/ADR-RES ovarian) was 4.31 µM. The GI50 (SF-539 CNS) was 1.53 µM, the TGI (SF-539 CNS) was 2.86 µM and the GI50 (MDA-MB-231 breast) was 1.78 µM. For the same compound, the TGI (MDA-MB-231 breast) was 4.3 µM, the GI50 (HS 578T breast) was 2.47 µM and the TGI (HS 578T breast) was over 23.1 µM. For the same compound, the GI50 (NCI-H522 lung) was 0.252 µM, the TGI (NCI-H522 lung) was 0.981 µM and the GI50 (HCT-15 colon) was 1.3 µM. It also gave a TGI (HCT-15 colon) of 2.62 µM, a GI50 (HT29 colon) of 1.97 µM and a TGI (HT29 colon) of 3.72 µM. It also gave a GI50 (UACC-62 melanoma) of 1.54 µM, a TGI (UACC-62 melanoma) of 3.1 µM and a GI50 (COLO 205 colon) of 1.67 µM. It also gave a TGI (COLO 205 colon) of 3.03 µM, a GI50 (BT-549 breast) of 1.56 µM and a TGI (BT-549 breast) of 3.26 µM. It also gave a GI50 (SK-MEL-2 melanoma) of 1.54 µM, a TGI (SK-MEL-2 melanoma) of 2.98 µM and a GI50 (HOP-92 NSCLC) of 1.38 µM. The TGI (HOP-92 NSCLC) was 3.7 µM, the GI50 (OVCAR-3 ovarian) was 0.814 µM and the TGI (OVCAR-3 ovarian) was 2.13 µM. The GI50 (EKVX NSCLC) was 1.42 µM, the TGI (EKVX NSCLC) was 3.67 µM and the GI50 (RXF 393 renal) was 1.4 µM. It also gave a TGI (RXF 393 renal) of 2.91 µM, a GI50 (PC-3 prostate) of 1.89 µM and a TGI (PC-3 prostate) of 3.94 µM. The GI50 (786-0 renal) was 1.68 µM, the TGI (786-0 renal) was 3.05 µM and the GI50 (SW-620 colon) was 1.49 µM. It also gave a TGI (SW-620 colon) of 2.81 µM, a GI50 (HL-60(TB) leukemia) of 1.43 µM and a TGI (HL-60(TB) leukemia) of 4.57 µM. For the same compound, the GI50 (SNB-75 CNS) was 0.606 µM, the TGI (SNB-75 CNS) was 2.17 µM and the GI50 (MOLT-4 leukemia) was 2.86 µM. It also gave a TGI (MOLT-4 leukemia) of over 23 µM.
